According to patent publication US20060211606A1, “Peptides” (priority 2005, published 2006):
Where no end group is shown, it is not given here. [ ]: non-standard residue; d: D form. The star is where a group is joined. Hexanoyl = CCCCCC(=O)*; PEG = not defined here; Ahx = NCCCCCC(=O)O

What was measured:
[1] = tested on: mononucleated myoblasts (satellite cells); test: Myoblast replication, cell number by Alamar Blue method (0 to 3 scale); format: cell-based
Procedure: FIG. 2: Effect of Alanine substitution and C-terminal and N-terminal truncation on stability and biological activity—further sequence alignment, comparing modified sequences of Peptides 1-6 (SEQ ID NOS: 15-20) and Short peptides 1-4 (SEQ NOS: 21-24), and detailing impact of changes on stability as measured by incubation in human plasma and biological activity as measured by testing on muscle cell line (see Examples for details of test procedures).
In this regard, one method of assessing biological activity is the Alamar Blue method as discussed in Example 5.2.2. This involves contacting a polypeptide with mononucleated myoblast cells and assessing the extent to which it causes them to proliferate. This can be scored in any suitable way, e.g. on a scale of 0 to 3 as discussed in the Examples. Activity may also be measured via cyclins, such as cyclin ID, which are early markers of cell division. Activity may also be measured via the use of bromodeoxy uridine (BrdU).
Biological activity was determined using an in vitro system by measuring the ability of the C terminal peptides to induce mononucleated myoblasts (satellite cells) to replicate. Cell number was determined using the Alamar Blue method.

C2C12 muscle cells [2] = test: C2C12 proliferation, BrdU incorporation; format: cell-based, mouse; details: 500 cells per well; 0.1, 1, 10 and 100 ng/ml; stimulation 24 hours, BrdU 5 hours
Procedure: (B) Peptides A2, A4, A6 and A8: C2C12 muscle cells at a 500 cells/well. Cultivation was carried out for 24 hours in 10% FBS, followed by starvation for 24 hours in 0.1% BSA, stimulation for 24 hours and then treatment with BrdU for 5 hours. Concentrations of 0.1, 1, 10 and 100 ng/ml of peptides A2, A4, A6 and A8 were tested, along with 0.1, 1, 10 and 100 ng/ml IGF-I (See the right-hand set of results). BrdU incorporation was measured to assess the level of cell proliferation achieved. Controls containing no cells, medium only, 5% FBS and no BrdU were also provided. Values on the Y-axis are for fluorescence (absorbence at 370 nm; mean plus standard error across 4 wells). The first column on the left relates to a control in which no cells were present. The next four relate to peptide A2 at concentrations of 0.1, 1, 10 and 100 ng/ml. The next four relate to peptide A4 at concentrations of 0.1, 1, 10 and 100 ng/ml. The central three relate to controls containing medium only (med), 5% FBS) and no BrdU. The next four relate to peptide A6 at concentrations of 0.1, 1, 10 and 100 ng/ml. The next four relate to peptide A8 at concentrations of 0.1, 1, 10 and 100 ng/ml. The right-hand group of results relate to IGF-I (See Example 1.5) at concentrations of 0.1, 1, 10 and 100 ng/ml.
The 8 amino acid peptides described in 1.3.2 above and referred to in FIG. 8B as A2, A4, A6 and A8 were tested for the ability to induce proliferation of C2C12 muscle cells at a density of 500 cells per well. Cultivation was carried out for 24 hours in 10% FBS, followed by starvation for 24 hours in 0.1% BSA, stimulation for 24 hours and then treatment with BrdU for 5 hours. Concentrations of 0.1, 1, 10 and 100 ng/ml of peptides A2, A4, A6 and A8 were tested, along with 0.1, 1, 10 and 100 ng/ml IGF-I (See the right-hand set of results in FIG. 8B). Incorporation of BrdU was measured to assess the level of cell proliferation achieved. Controls containing no cells, medium only, 5% FBS and no BrdU were also provided.

[3] = Stability to proteolytic cleavage in fresh human plasma, Western blotting
Procedure: Western blotting was then used to assess the survival of each peptide over those time intervals: A=0 minutes; B=30 minutes; C=2 hours; D=24 hours.
Stability may be assessed in terms of half-life in human plasma or by any other suitable technique. In particular, stability can be measured by assessing peptides' susceptibility to proteolytic cleavage in fresh human plasma according to the technique of Example 5.1 below, in which the plasma was stored until used at −70° C., 10 μg of peptide was added to 2 ml of plasma, plus 7 ml of PBS and the mixture was incubated at 37° C. for different time intervals. Western blotting was then used to detect each peptide over those time intervals.
The plasma was stored until used at −70° C. 10 μg of peptide were added to 2 ml of plasma, plus 7 ml of PBS. This mixture was incubated at 37° C. for different time intervals.
Like biological activity, stability was scored on a scale of 0 to 3.
Stability was determined as the amount of the peptide that remained intact and bound to the specific antibody in the following way:

C2C12 muscle cells [4] = test: C2C12 proliferation, Alamar Blue assay; format: cell-based, mouse; details: 2000 cells per well; 2, 5, 50 and 100 ng/ml; medium with IGF-I 2 ng per ml; 36 hours
Procedure: (A) DMGF and CMGF Peptides: C2C12 Cells were provided at 2000 cell/well, in a medium containing DMEM (1000 mg/L glucose), plus BSA(100 ug/ml), plus IGF-I (2 ng per ml) and incubated for 36 hours. Cell proliferation was then assessed using an Alamar Blue assay. […] Y-axis values are fluorescence (wavelength of excitation 535 nm, measurement at 590 nm; mean plus standard error) in an Alamar Blue assay.
The 8 amino acid peptides described in 1.3.1 above and referred to in FIG. 8A as DMGF and CMGF were tested for the ability to induce proliferation of C2C12 muscle cells at a density of 2000 cells per well in a medium containing DMEM (1000 mg/L glucose), BSA (10 ug/ml) and IGF-I (2 ng per ml). Concentrations of 2, 5, 50 and 100 ng/ml of DMGF and CMGF were tested (See the left-hand and middle sets of results in FIG. 8), along with 2, 5, 50 and 100 ng/ml IGF-I alone (See the right-hand set of results in FIG. 8). After 36 hours incubation, an Alamar Blue assay was used to assess the level of cell proliferation achieved. A control containing only the medium was also provided.

| Substance | biological activity score (scale of 0 to 3) [1] | proliferation of C2C12 cells (BrdU incorporation) (C2C12 muscle cells [2]) | further results |
| --- | --- | --- | --- |
| Short peptide 4: SEQ ID NO: 15 with Arg14→Ala and the five N-terminal amino acids removed (TNKNTKSQARKGSTFEEHK) | zero | – | – |
| A6: Gly-Ser-Thr-Phe-Glu-Glu-Arg-Lys (SEQ ID NO:34), amidated at the C-terminus, amino-hexanoic acid moiety at the N-terminus ([Ahx]GSTFEERK-NH2; N-terminus assumed; SMILES C[C@@H](O)[C@H](NC(=O)[C@H](CO)NC(=O)CNC(=O)CCCCCN)C(=O)N[C@@H](Cc1ccccc1)C(=O)N[C@@H](CCC(=O)O)C(=O)N[C@@H](CCC(=O)O)C(=O)N[C@@H](CCCNC(=N)N)C(=O)N[C@@H](CCCCN)C(N)=O) [Peptide A6] | – | induced cell proliferation | – |
| YQPPSTNKNTKAQRRKGSTFEEHK [Peptide 3] | 3 (significant increase in cell number at 1 h.) | – | – |
| YQPPSTNKNTKSQAAKGSTFEEHK [Peptide 6] | zero | – | – |
| YQPPSTNKNTKSQRRKGSTFEEHK [Peptide 1] | – | – | biological activity (in words) [1]: little or no activity; stability score (scale of 0 to 3) ([3]; fresh human plasma, Western blotting, intact peptide bound to specific antibody): 1 (marked loss of detectable antibody binding by ½ hours.) |
| DMGF: Gly-Ser-Thr-Phe-Glu-Glu-His-Lys (SEQ ID NO:33), N-terminal PEGylation, amidated at the C-terminal end ({PEG}-GSTFEEHK-NH2; reading uncertain; also: printed as Gly-Ser-Thr-Phe-Glu-Glu-His-Lys) | – | – | proliferation of C2C12 cells (Alamar Blue fluorescence) (C2C12 muscle cells [4]): induced cell proliferation |
| Short peptide 3: SEQ ID NO: 15 with Arg14→Ala and the three N-terminal amino acids removed (PSTNKNTKSQARKGSTFEEHK) | zero | – | – |
| Short peptide 2: SEQ ID NO: 15 with Arg14→Ala and the four C-terminal amino acids removed (YQPPSTNKNTKSQARKGSTF) | zero | – | – |
| A2: Gly-Ser-Thr-Phe-Glu-Glu-Arg-Lys (SEQ ID NO:34), amidated at the C-terminus, unmodified at the N-terminus (H-GSTFEERK-NH2) [Peptide A2] | – | induced cell proliferation | – |
| YQPPSTNKNTKSQRRKGSTFEERK [native human MGF C terminal Ec peptide, reference compound] | – | – | half-life in human plasma ([3]; human plasma): short half-life |
| CMGF: Gly-Ser-Thr-Phe-Glu-Glu-His-Lys (SEQ ID NO:33), N-terminal hexanoic acid, amidated at the C-terminal end (Hexanoyl-GSTFEEHK-NH2; SMILES CCCCCC(=O)NCC(=O)N[C@@H](CO)C(=O)N[C@H](C(=O)N[C@@H](Cc1ccccc1)C(=O)N[C@@H](CCC(=O)O)C(=O)N[C@@H](CCC(=O)O)C(=O)N[C@@H](Cc1c[nH]cn1)C(=O)N[C@@H](CCCCN)C(N)=O)[C@@H](C)O) | – | – | proliferation of C2C12 cells (Alamar Blue fluorescence) (C2C12 muscle cells [4]): induced cell proliferation |
| A8: Gly-Ser-Thr-Phe-Glu-Glu-His-Lys (SEQ ID NO:33), amidated at the C-terminus, hexanoic acid at the N-terminus (Hexanoyl-GSTFEEHK-NH2; SMILES CCCCCC(=O)NCC(=O)N[C@@H](CO)C(=O)N[C@H](C(=O)N[C@@H](Cc1ccccc1)C(=O)N[C@@H](CCC(=O)O)C(=O)N[C@@H](CCC(=O)O)C(=O)N[C@@H](Cc1c[nH]cn1)C(=O)N[C@@H](CCCCN)C(N)=O)[C@@H](C)O) [Peptide A8] | – | induced cell proliferation | – |
| A4: Gly-Ser-Thr-Phe-Glu-Glu-Arg-Lys (SEQ ID NO:34), amidated at the C-terminus, hexanoic acid moiety at the N-terminus (Hexanoyl-GSTFEERK-NH2; SMILES CCCCCC(=O)NCC(=O)N[C@@H](CO)C(=O)N[C@H](C(=O)N[C@@H](Cc1ccccc1)C(=O)N[C@@H](CCC(=O)O)C(=O)N[C@@H](CCC(=O)O)C(=O)N[C@@H](CCCNC(=N)N)C(=O)N[C@@H](CCCCN)C(N)=O)[C@@H](C)O) [Peptide A4] | – | induced cell proliferation | – |
